Data published in publication PMC9781199, “Rational-Based Discovery of Novel β-Carboline Derivatives as Potential Antimalarials: From In Silico Identification of Novel Targets to Inhibition of Experimental Cerebral Malaria” (Pathogens, 2022).
“And” between values parts separate entries of the source, which are not always exact repeats. Equal values may be shown once. Read-outs that look alike come from different tables or passages of the source.

Assays:
[1] = test system: Plasmodium falciparum W2 strain (CQ-resistant); assay: In vitro antiplasmodial activity, SYBR test; type: cell-based; conditions: for SI (selectivity index): ratio between cytotoxic (WI-26-VA4) and antiplasmodial (W2) activities
Procedure: Continuous culture was maintained as previously described. In vitro antiplasmodial activity of the seven compounds against the P. falciparum culture was evaluated using the SYBR test as previously described. Compounds were diluted to concentrations ranging from 10 to 0.0001 μM. […] The plate was read in a fluorometer (Fluoroskan Ascent, Thermo Laboratories) with excitation at 485 nm and an emission of […]. All experiments were performed in triplicate. The results were expressed as the mean of minimum lethal dose for 50% of the culture (IC50).
Selectivity index (SI) is the ratio between the cytotoxic and antiplasmodial activities of each compound tested. The values greater than 10 were considered indicative of lack of cytoxicity, whereas the substances with values below 10 were considered toxic.

[2] = test system: human pulmonary fibroblast cells WI-26VA4; assay: In vitro cytotoxicity on mammalian cells, MTT assay; type: cell-based; conditions: read-out: WI-26-VA4 IC50 ± SD
Procedure: In vitro cytotoxicity of the compounds was assessed against human pulmonary fibroblast cells WI-26VA4 (ATCC CCL-95.1, USA), by 3-(4,5-dimethyl-2-thiazolyl)-2, 5-diphenyl-2H-tetrazolium bromide (MTT assay). Cells were cultured in a RPMI-1640 medium supplemented with 10% heat-inactivated fetal bovine serum in a 96-well plate. Compounds were diluted in different concentrations ranging from 100 to 1 μM and incubated with the cells for 48 h in a 5% CO2 atmosphere at 37 °C. The optical density was determined at 540 nm […] (Spectra Max340PC384, Molecular Devices, Sunnyvale, CA, USA). The minimum lethal dose for 50% of the cells (IC50) was determined as previously described.

Plasmodium berghei ANKA [3] = assay: Curative test in the mouse model of experimental cerebral malaria; type: in vivo, C57BL/6 mice infected with P. berghei ANKA; conditions: for % Reduction of parasitemia, 7th dpi / Parasitemia ± SD, 7th dpi / % Reduction of parasitemia, 5th dpi / Parasitemia ± SD, 5th dpi: 10 mg/Kg oral, day 3 to 7 p.i.
Plasmodium berghei ANKA [4] = assay: Suppressive modified test in the mouse model of experimental cerebral malaria; type: in vivo, C57BL/6 mice infected with P. berghei ANKA; conditions: for % Reduction of parasitemia, 5th dpi / Parasitemia ± SD, 5th dpi / % Reduction of parasitemia, 7th dpi / Parasitemia ± SD, 7th dpi: suppressive test, 10 mg/Kg oral for five days from 4 h after infection
Procedure: The animals (n = 5/cage) were housed in ALESCO® climate-controlled cabinets with controlled air flow, a temperature of 22 ± 2 °C and light control, respecting the animals’ circadian rhythm (light/dark cycle of 12 h), with standard rodent food and water ad libitum.
To carry out the proposed experiments, the murine model of ECM was used to assess the antimalarial activity of the compounds. Plasmodium berghei ANKA was kindly provided by Claudio Romero Marinho (Federal University of São Paulo-Brazil), and was used to conduct the infections which were performed by intraperitoneal (i.p.) injection of 10^5 parasitized red blood cells (pRBCs) obtained from infected donor mice, as previously described. Reduced responsiveness to external stimuli, ataxia, paralysis, coma, and/or convulsions were considered clinical signals of ECM [44].
In the suppressive modified test, mice were treated daily by oral gavage for five consecutive days, starting four hours after infection.
Parasitemia was monitored using giemsa-stained blood smears and the inhibition of parasite multiplication (IPM) was calculated by the formula: [(A–B)/A] × 100, where A = parasitemia of the PbA, and B = parasitemia of the group treated with the compounds. The clinical symptoms were evaluated using the rapid murine coma and behavior scale (RMCBS) from day 5 p.i. being maintained until the end of experimentation. The RMCBS consists of 10 parameters (gait, balance, motor performance, body position, limb strength, touch escape, pinna reflex, toe pinch, aggression, and grooming). Each parameter is scored 0 to 2, with 0 being the lowest function and 2 being the highest. Animals with clinical score ≤ 5 were euthanized. The survival rate (SR) was calculated based on the number of alive animals after 14 days of clinical evaluation. […]

[5] = test system: peritoneal macrophages of BALB/c mice; assay: Cytotoxicity on peritoneal macrophages, MTT method; type: cell-based; conditions: 18 to 150 μM, 48 h
Procedure: Macrophages obtained from the peritoneal cavity of BALB/c mice previously inoculated with 3% thioglycollate medium for the evaluation of cell viability were used. The macrophages were seeded in culture bottles with a RPMI-1640 medium supplemented with 2 mM L-glutamine, 100 µg/mL antibiotics (streptomycin and penicillin), 5% fetal bovine serum (FBS) and kept in an incubator at 5% CO2 atmosphere at 37 °C until the day of the test. The protocol was approved by the Ethical Committee for Animal Research of Federal University of Juiz de Fora (n° 007/2018-CEUA).
Cytotoxicity was assessed by cell viability using the MTT method. Briefly, the macrophages at 2 × 10^6 cells/well were transferred to 96-well microplates and treated with compound 10 at concentrations of 18 to 150 μM. For the negative control, cells were treated only with 0.06% DMSO (vehicle). The cells were incubated for 48 h at 37 °C and 5% CO2 atmosphere. Absorbance was read at 570 nm and cell viability (%) of macrophages was obtained by the following formula: % viable cells = [(AUSample)/AU0.06% DMSO] × 100, where: AUSample: Absorbance was measured after treatment of cells with the sample; AU0.06% DMSO: Absorbance was measured after treatment of cells with 0.06% DMSO. The experiment was performed in triplicate.

[6] = test system: NO production in murine peritoneal macrophages; assay: NO production by LPS/IFN-γ stimulated macrophages, Griess method; type: cell-based, BALB/c mice; conditions: macrophages stimulated with LPS and IFN-γ, 18 to 150 μM, 48 h, p < 0.05
Procedure: NO production was determined in the culture supernatants of macrophages after being incubated for 48 h in the presence of compound 10 ([…]) and stimulated with LPS at 1 μg/mL and IFN-γ at 1 ng/mL. Negative control was stimulated with LPS and IFN-γ and treated with 0.06% DMSO (vehicle). The cells were incubated for 48 h at 37 °C and 5% CO2 atmosphere. Subsequently, NO production was evaluated by the Griess method (an indirect NO measurement by nitrite dosing) in the recovered culture supernatant from the 48 h stimuli and treatment as described by. The quantity of NO (μM) was determined by comparison with a standard sodium nitrite solution. The spectrophotometric measurement was performed at 540 nm and the experiment was performed in triplicate.

[7] = Plasmodium falciparum, W2 strain (chloroquine-resistant), SYBR test, triplicate, read-out: P. falciparum IC50 ± SD
[8] = WI26VA4, human fibroblasts, MTT, 48 h, highest concentration 100 μM
[9] = suppressive treatment regimen, 10 mg/kg oral

Molecule | % Reduction of parasitemia, 7th dpi (Plasmodium berghei ANKA [3]) [%] | Parasitemia ± SD, 7th dpi (Plasmodium berghei ANKA [3]) | Parasitemia ± SD, 5th dpi (Plasmodium berghei ANKA [4]) | % Reduction of parasitemia, 7th dpi (Plasmodium berghei ANKA [4]) [%] | Parasitemia ± SD, 7th dpi (Plasmodium berghei ANKA [4]) | IC50 [1, 7] [nM] | SI (selectivity index) [1] | IC50 [2, 8] [nM] | % Reduction of parasitemia, 5th dpi (Plasmodium berghei ANKA [3]) [%] | Parasitemia ± SD, 5th dpi (Plasmodium berghei ANKA [3]) | Prevention of the development of CM (share of animals) (Plasmodium berghei ANKA [3]; 10 mg/kg oral) | further results
CCN(CC)CCCC(C)Nc1ccnc2cc(Cl)ccc12 (stereo not drawn) [CQ, chloroquine, reference compound] | 96.1 | 0.21 ± 0.27 | 0.24 ± 0.05 | 96.1 | 0.21 ± 0.27 |  |  |  |  |  |  | IC50 ([1]; Plasmodium falciparum, W2, read-out: P. falciparum IC50 ± SD): 590 ± 15 nM; IC50 ([2]; Homo sapiens, WI26VA4, 48 h): > 100000 nM; % Reduction of parasitemia, 5th dpi (Plasmodium berghei ANKA [4]): 96.5%
COc1cc(C2NCCc3c2[nH]c2ccccc32)cc(OC)c1OC (stereo not drawn) [Compound 9, 1-(3,4,5-Trimethoxyphenyl)-2,3,4,9-tetrahydro-1H-pyrido[3,4-b]indole] |  |  |  |  |  | 1120 ± 14 | >89 | > 100000 |  |  |  | 
CCN(CC)c1ccc(C2NCCc3c2[nH]c2ccccc32)c(O)c1 (stereo not drawn) [Compound 8, 5-(Diethylamino)-2-(2,3,4,9-tetrahydro-1H-pyrido[3,4-b]indol-1-yl)phenol] |  |  |  |  |  | 1820 ± 11 | >55 | > 100000 |  |  |  | 
COC(=O)[C@@H]1Cc2c([nH]c3ccccc23)[C@@H](c2ccccc2Cl)N1 [Compound 6, Methyl (1R,3S)-1-(2-Chloro)-2,3,4,9-tetrahydro-1H-pyrido[3,4-b]indole-3-carboxylate] |  |  |  |  |  | 670 ± 19 | >149 | > 100000 | 64.36 | 1.13 ± 0.48 | No protective effect | 
COc1cc(-c2nccc3c2[nH]c2ccccc23)cc(OC)c1OC [Compound 10, 1-(3,4,5-Trimethoxyphenyl)-9H-pyrido[3,4-b]indole] | 0 | 8.37 ± 2.26 | 0.57 ± 0.94 | 45.69 | 3.72 ± 3.93 | 510 ± 11 | >196 | > 100000 |  | 1.02 ± 0.93 | 70% | % Reduction of parasitemia, 5th dpi (Plasmodium berghei ANKA [3]; 10 mg/kg): 67.9% and 67.92%; % Reduction of parasitemia, 5th dpi (Plasmodium berghei ANKA [4]; 10 mg/kg): 82% and 82.07%; Toxicity for peritoneal macrophages (cell viability, MTT) [5]: no toxicity; NO levels (nitrite equivalent) [6]: reduce NO levels at all concentrations tested
COC(=O)[C@@H]1Cc2c([nH]c3ccccc23)[C@@H](c2ccccc2OC)N1 [Compound 4, Methyl (1R,3S)-1-(2-Methoxy)-2,3,4,9-tetrahydro-1H-pyrido[3,4-b]indole-3-carboxylate] | 20.00 | 5.48± 3.64 | 1.88 ± 2.46 | 9.78 | 6.18 ± 4.75 | 1040 ± 21 | >96 | > 100000 | 75.16 | 0.79 ± 0.63 |  | Animals alive until the 14th dpi (without CM) (Plasmodium berghei ANKA [3]; 10 mg/kg oral): 90%; % Reduction of parasitemia, 5th dpi (Plasmodium berghei ANKA [4]; 10 mg/kg): 40% and 40.88%; Protection against CM (share of animals) (Plasmodium berghei ANKA [4]; [9]): 60%
COC(=O)[C@@H]1Cc2c([nH]c3ccccc23)[C@H](c2ccccc2Cl)N1 [Compound 5, Methyl (1S,3S)-1-(2-Chloro)-2,3,4,9-tetrahydro-1H-pyrido[3,4-b]indole-3-carboxylate] | 0 | 7.20 ± 4.57 |  |  |  | 1410 ± 18 | >71 | > 100000 | 0.00 | 5.00 ± 1.59 | No protective effect | 
artemisinin [reference compound] |  |  |  |  |  |  |  |  |  |  |  | IC50 ([1]; W2 strain (chloroquine-resistant), SYBR test, triplicate, read-out: P. falciparum IC50 ± SD): 95 ± 10 nM; IC50 ([2]; human fibroblasts, MTT, 48 h, highest concentration 100 μM): > 100000 nM
COC(=O)[C@@H]1Cc2c([nH]c3ccccc23)[C@H](c2ccccc2OC)N1 [Compound 3, Methyl (1S,3S)-1-(2-Methoxy)-2,3,4,9-tetrahydro-1H-pyrido[3,4-b]indole-3-carboxylate] | 0 | 7.50 ± 2.49 | 3.56 ± 2.57 | 0 | 7.96 ± 3.26 | 710 ± 12 | >141 | > 100000 | 41.19 | 1.87 ± 1.02 |  | % Reduction of parasitemia, 5th dpi (Plasmodium berghei ANKA [4]): 0.00%; Inhibition of parasite growth (in words) (Plasmodium berghei ANKA [4]; [9]): not effective
